Data as given in the NIST ThermoML archive (doi:10.1016/j.jct.2015.09.005).
± gives the expanded uncertainty stated by the source.

Conditions: Liquid, Gas chromatography

In the case of `CC1=COC(=O)[C@@H]2[C@@H]1CC[C@@H]2C`, the “vapor or sublimation pressure” value (298.15 K) is reported as 0.0012 ± 0.0001 kPa, the “vapor or sublimation pressure” value (308.15 K) is reported as 0.0029 ± 0.0003 kPa and the “vapor or sublimation pressure” value (318.15 K) is reported as 0.0066 ± 0.0007 kPa. The “vapor or sublimation pressure” value (328.15 K) was 0.014 ± 0.002 kPa, the “vapor or sublimation pressure” value (338.15 K) was 0.029 ± 0.003 kPa and the “vapor or sublimation pressure” value (348.15 K) was 0.056 ± 0.006 kPa. For the same molecule, the “vapor or sublimation pressure” value (350 K) was 0.064 ± 0.006 kPa.

For `CC1=COC(=O)[C@H]2[C@@H]1CC[C@@H]2C`, the “vapor or sublimation pressure” value (298.15 K) was 0.00092 ± 9e-05 kPa, the “vapor or sublimation pressure” value (308.15 K) was 0.0022 ± 0.0002 kPa and the “vapor or sublimation pressure” value (318.15 K) was 0.005 ± 0.0005 kPa. For the same molecule, the “vapor or sublimation pressure” value (328.15 K) was 0.011 ± 0.001 kPa, the “vapor or sublimation pressure” value (338.15 K) was 0.022 ± 0.002 kPa and the “vapor or sublimation pressure” value (348.15 K) was 0.045 ± 0.005 kPa. The “vapor or sublimation pressure” value (350 K) was 0.05 ± 0.005 kPa.
